Assay results reported in paper PMC12406203 (Journal of Medicinal Chemistry, 2025).

Key:
Experiment in all cases: KINOMEscan
Type in all cases: binding
AKT2 = target: T1, AKT2 (Homo sapiens, UniProt P31751)
T1 construct: purchased Eurofins DiscoverX, LLC; host or cells: E. coli BL21-derived (T7 phage) or HEK-293

MKNK2 = target: T2, MKNK2 (Homo sapiens, UniProt Q9HBH9)
T2 construct: purchased Eurofins DiscoverX, LLC; host or cells: E. coli (BL21-derived, T7 phage) or HEK-293

TSSK1B = target: T3, TSSK1B (Homo sapiens, UniProt Q9BXA7)
T3 construct: purchased Eurofins DiscoverX, LLC; host or cells: E. coli BL21-derived host (T7 phage) or HEK-293
T3 sequence (Q9BXA7 1-367): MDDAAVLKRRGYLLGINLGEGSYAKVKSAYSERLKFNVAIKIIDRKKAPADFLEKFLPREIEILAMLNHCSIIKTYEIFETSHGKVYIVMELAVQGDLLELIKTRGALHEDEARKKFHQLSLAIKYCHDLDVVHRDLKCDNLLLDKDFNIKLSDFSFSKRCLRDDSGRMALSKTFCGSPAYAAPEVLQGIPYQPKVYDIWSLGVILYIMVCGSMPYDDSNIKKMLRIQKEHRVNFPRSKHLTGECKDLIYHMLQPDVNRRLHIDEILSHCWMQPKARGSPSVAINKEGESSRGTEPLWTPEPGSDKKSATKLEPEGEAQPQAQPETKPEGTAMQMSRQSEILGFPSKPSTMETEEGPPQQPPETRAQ

FLT3 = target: T4, FLT3 (Homo sapiens, UniProt P36888)
T4 construct: purchased Eurofins DiscoverX, LLC; host or cells: E. coli (T7 phage) or HEK-293
T4 sequence (P36888 27-993): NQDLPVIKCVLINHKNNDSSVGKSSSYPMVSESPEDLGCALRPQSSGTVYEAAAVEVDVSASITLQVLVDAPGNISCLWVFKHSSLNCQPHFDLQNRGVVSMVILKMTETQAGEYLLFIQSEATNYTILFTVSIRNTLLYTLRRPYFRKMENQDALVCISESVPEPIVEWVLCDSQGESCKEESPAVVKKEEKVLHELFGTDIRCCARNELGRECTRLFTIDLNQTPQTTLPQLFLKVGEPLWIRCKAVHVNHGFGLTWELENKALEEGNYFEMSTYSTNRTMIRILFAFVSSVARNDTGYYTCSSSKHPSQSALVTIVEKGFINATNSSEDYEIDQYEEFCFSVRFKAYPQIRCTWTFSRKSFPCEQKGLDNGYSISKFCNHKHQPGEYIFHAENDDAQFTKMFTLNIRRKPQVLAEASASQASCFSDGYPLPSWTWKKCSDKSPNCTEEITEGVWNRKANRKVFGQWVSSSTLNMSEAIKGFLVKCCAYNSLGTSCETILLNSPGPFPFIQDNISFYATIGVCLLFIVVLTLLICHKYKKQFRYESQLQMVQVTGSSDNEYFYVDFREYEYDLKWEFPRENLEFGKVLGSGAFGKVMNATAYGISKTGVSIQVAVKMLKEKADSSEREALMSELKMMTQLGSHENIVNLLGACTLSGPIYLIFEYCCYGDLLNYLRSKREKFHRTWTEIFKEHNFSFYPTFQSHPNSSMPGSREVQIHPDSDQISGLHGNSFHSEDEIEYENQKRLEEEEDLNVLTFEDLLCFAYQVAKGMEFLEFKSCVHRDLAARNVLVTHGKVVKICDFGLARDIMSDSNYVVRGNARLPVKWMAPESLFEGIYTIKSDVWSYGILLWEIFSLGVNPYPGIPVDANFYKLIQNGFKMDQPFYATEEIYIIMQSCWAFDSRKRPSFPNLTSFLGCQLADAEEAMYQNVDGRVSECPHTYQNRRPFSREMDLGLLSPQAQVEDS

TGFBR1 = target: T5, TGFBR1 (Homo sapiens, UniProt P36897)
T5 construct: purchased Eurofins DiscoverX, LLC; host or cells: E. coli BL21-derived host (T7 phage) or HEK-293
T5 sequence (P36897 34-503): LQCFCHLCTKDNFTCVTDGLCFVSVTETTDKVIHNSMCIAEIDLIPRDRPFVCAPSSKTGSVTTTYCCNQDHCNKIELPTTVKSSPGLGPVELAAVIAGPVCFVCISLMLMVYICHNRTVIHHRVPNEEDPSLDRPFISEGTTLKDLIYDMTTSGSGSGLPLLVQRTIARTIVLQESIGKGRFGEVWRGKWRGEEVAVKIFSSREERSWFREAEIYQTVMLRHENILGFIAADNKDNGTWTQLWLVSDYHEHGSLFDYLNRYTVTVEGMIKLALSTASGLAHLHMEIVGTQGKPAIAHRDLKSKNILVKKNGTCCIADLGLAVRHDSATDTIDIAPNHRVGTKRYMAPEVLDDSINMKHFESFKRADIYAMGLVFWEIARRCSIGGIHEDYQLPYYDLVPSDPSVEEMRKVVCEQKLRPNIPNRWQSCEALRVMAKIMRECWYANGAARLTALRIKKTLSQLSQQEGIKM

T2 sequence (Q9HBH9 whole entry): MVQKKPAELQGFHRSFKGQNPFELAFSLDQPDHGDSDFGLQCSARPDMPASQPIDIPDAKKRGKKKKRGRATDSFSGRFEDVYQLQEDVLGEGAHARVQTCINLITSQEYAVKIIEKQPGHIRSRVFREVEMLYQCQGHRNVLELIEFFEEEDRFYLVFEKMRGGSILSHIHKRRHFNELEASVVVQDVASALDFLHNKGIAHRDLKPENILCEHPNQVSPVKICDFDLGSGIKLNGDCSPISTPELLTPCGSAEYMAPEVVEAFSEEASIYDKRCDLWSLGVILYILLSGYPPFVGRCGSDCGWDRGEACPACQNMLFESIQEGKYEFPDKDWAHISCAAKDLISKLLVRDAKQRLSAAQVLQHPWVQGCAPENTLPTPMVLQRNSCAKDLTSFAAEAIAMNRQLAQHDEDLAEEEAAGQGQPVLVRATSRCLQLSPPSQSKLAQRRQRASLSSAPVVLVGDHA
T1 sequence (P31751 whole entry): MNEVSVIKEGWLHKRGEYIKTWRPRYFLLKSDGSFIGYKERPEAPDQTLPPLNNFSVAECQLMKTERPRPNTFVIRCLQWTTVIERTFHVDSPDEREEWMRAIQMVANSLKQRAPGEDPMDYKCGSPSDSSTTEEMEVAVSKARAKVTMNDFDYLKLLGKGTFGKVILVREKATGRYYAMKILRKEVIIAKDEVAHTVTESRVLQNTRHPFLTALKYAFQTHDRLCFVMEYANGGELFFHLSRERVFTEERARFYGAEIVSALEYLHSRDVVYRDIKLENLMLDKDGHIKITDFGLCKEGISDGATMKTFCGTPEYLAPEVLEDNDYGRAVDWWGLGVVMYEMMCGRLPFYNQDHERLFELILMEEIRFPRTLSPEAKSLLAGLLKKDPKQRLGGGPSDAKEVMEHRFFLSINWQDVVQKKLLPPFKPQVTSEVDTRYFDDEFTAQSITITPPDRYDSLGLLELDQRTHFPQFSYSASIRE

Row | Compound | RA @ 1000nM (AKT2) | RA @ 10000nM (AKT2) | RA @ 1000nM (MKNK2) | RA @ 10000nM (MKNK2) | RA @ 1000nM (TSSK1B) | RA @ 10000nM (TSSK1B) | RA @ 1000nM (FLT3) | RA @ 10000nM (FLT3) | RA @ 1000nM (TGFBR1) | RA @ 10000nM (TGFBR1)
1 | CN(C)CCNC(=O)c1cc2c(cnn2CC2CCCCC2)cc1Cc1ccc(F)cc1F [Compound 95, 1-(Cyclohexylmethyl)-5-(2,4-difluorobenzyl)-N-(2-(dimethylamino)ethyl)-1H-indazole-6-carboxamide] | 100% | 88% | 81% | 67% | 100% | 79% | 100% | 100% | 100% | 100%
2 | CC(C)Cn1ncc2cc(Cc3ccc(F)cc3F)c(C(=O)NCCN(C)C)cc21 [Compound 94, 5-(2,4-Difluorobenzyl)-N-(2-(dimethylamino)ethyl)-1-isobutyl-1H-indazole-6-carboxamide] | 89% | 76% | 76% | 80% | 77% | 89% | 100% | 90% | 100% | 100%
